# Reference: patent publication US4401660A, “Ester derivatives of 5-O-mycaminosyl tylonolide and method of using same” (Eli Lilly and Company, priority 1981, dated 1983)
# Experiments:
# [1] = tested on: Haemophilus influenzae Holt; experiment: MIC, standard agar-dilution assay (Table II); type: cell-based; design: unit not given here; settings: ampicillin-sensitive strain
# Description: (§1) The MIC's in Table II were determined by standard agar-dilution assays. The MIC's in Table III were obtained using a conventional broth-dilution microtiter test.
# [2] = tested on: Haemophilus influenzae R252; experiment: MIC, standard agar-dilution assay (Table II); type: cell-based; design: unit not given here; settings: Haemophilus influenzae R252, ampicillin-resistant strain
# Description: as §1
# [3] = tested on: Staphylococcus aureus S13E; experiment: MIC, standard agar-dilution assay (Table II); type: cell-based; design: unit not given here
# Description: as §1
# [4] = tested on: Staphylococcus aureus V41; experiment: MIC, standard agar-dilution assay (Table II); type: cell-based; design: unit not given here; settings: Staphylococcus aureus V41, penicillin-resistant strain
# Description: as §1
# [5] = tested on: Staphylococcus aureus X1.1; experiment: MIC, standard agar-dilution assay (Table II); type: cell-based; design: unit not given here
# Description: as §1
# [6] = tested on: Staphylococcus aureus X400; experiment: MIC, standard agar-dilution assay (Table II); type: cell-based; design: unit not given here; settings: Staphylococcus aureus X400, methicillin-resistant strain
# Description: as §1
# [7] = tested on: Staphylococcus epidermidis EPI1; experiment: MIC, standard agar-dilution assay (Table II); type: cell-based; design: unit not given here
# Description: as §1
# [8] = tested on: Staphylococcus epidermidis EPI2; experiment: MIC, standard agar-dilution assay (Table II); type: cell-based; design: unit not given here
# Description: as §1
# [9] = tested on: Streptococcus Group D 9960; experiment: MIC, standard agar-dilution assay (Table II); type: cell-based; design: unit not given here
# Description: as §1
# [10] = tested on: Streptococcus Group D X66; experiment: MIC, standard agar-dilution assay (Table II); type: cell-based; design: unit not given here
# Description: as §1
# [11] = tested on: Streptococcus pneumoniae Park I; experiment: MIC, standard agar-dilution assay (Table II); type: cell-based; design: unit not given here
# Description: as §1
# [12] = tested on: Streptococcus pyogenes C203; experiment: MIC, standard agar-dilution assay (Table II); type: cell-based; design: unit not given here
# Description: as §1
# Mycoplasma gallisepticum = experiment: MIC, broth-dilution microtiter test (Table III); type: cell-based; design: unit not given here
# Description: as §1
# Mycoplasma hyorhinis = experiment: MIC, broth-dilution microtiter test (Table III); type: cell-based; design: unit not given here
# Description: as §1
# Mycoplasma synoviae = experiment: MIC, broth-dilution microtiter test (Table III); type: cell-based; design: unit not given here
# Description: as §1
# [13] = tested on: Pasteurella haemolytica 22C; experiment: MIC, broth-dilution microtiter test (Table III); type: cell-based; design: unit not given here
# Description: as §1
# [14] = tested on: Pasteurella haemolytica 23C; experiment: MIC, broth-dilution microtiter test (Table III); type: cell-based; design: unit not given here
# Description: as §1
# [15] = tested on: Pasteurella haemolytica 41D; experiment: MIC, broth-dilution microtiter test (Table III); type: cell-based; design: unit not given here
# Description: as §1
# [16] = tested on: Pasteurella multocida 17E; experiment: MIC, broth-dilution microtiter test (Table III); type: cell-based; design: unit not given here; settings: bovine isolate
# Description: as §1
# [17] = tested on: Pasteurella multocida 22A; experiment: MIC, broth-dilution microtiter test (Table III); type: cell-based; design: unit not given here
# Description: as §1
# [18] = tested on: Pasteurella multocida 40G; experiment: MIC, broth-dilution microtiter test (Table III); type: cell-based; design: unit not given here
# Description: as §1
# [19] = tested on: Pasteurella multocida 60A; experiment: MIC, broth-dilution microtiter test (Table III); type: cell-based; design: unit not given here; settings: avian isolate
# Description: as §1
# [20] = tested on: Pasteurella multocida 68C; experiment: MIC, broth-dilution microtiter test (Table III); type: cell-based; design: unit not given here
# Description: as §1
# Staphylococcus aureus = experiment: MIC, broth-dilution microtiter test (Table III); type: cell-based; design: unit not given here
# Description: as §1
# Streptococcus sp. 80 = experiment: MIC, broth-dilution microtiter test (Table III); type: cell-based; design: unit not given here
# Description: as §1
# Pasteurella multocida = experiment: Treatment of Pasteurella infections in chicks (Table V); type: in vivo, one-day-old chicks; settings: Pasteurella multocida, sc, 4 h; 30 mg/kg by subcutaneous injection one and four hours post challenge; read-out: Deaths in Treated Chicks/Number Treated (converted)
# Summary of the method: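 One-day-old chicks challenged subcutaneously with avian P. multocida (0.1 ml of 10^-3 dilution of 20-hour tryptose broth culture). Esters given at 30 mg/kg subcutaneously at 1 and 4 hours post challenge. Untreated infected controls, ten per group.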
Structure (SMILES),minimal inhibitory concentration (MIC) [1],minimal inhibitory concentration (MIC) [2],minimal inhibitory concentration (MIC) [3],minimal inhibitory concentration (MIC) [4],minimal inhibitory concentration (MIC) [5],minimal inhibitory concentration (MIC) [6],minimal inhibitory concentration (MIC) [7],minimal inhibitory concentration (MIC) [8],minimal inhibitory concentration (MIC) [9],minimal inhibitory concentration (MIC) [10],minimal inhibitory concentration (MIC) [11],minimal inhibitory concentration (MIC) [12],minimal inhibitory concentration (MIC) (Mycoplasma gallisepticum),minimal inhibitory concentration (MIC) (Mycoplasma hyorhinis),minimal inhibitory concentration (MIC) (Mycoplasma synoviae),minimal inhibitory concentration (MIC) [13],minimal inhibitory concentration (MIC) [14],minimal inhibitory concentration (MIC) [15],minimal inhibitory concentration (MIC) [16],minimal inhibitory concentration (MIC) [17],other results
CCC1OC(=O)CC(O)C(C)C(OC2OC(C)C(O)C(N(C)C)C2OC(C)=O)C(CC=O)CC(C)C(=O)C=CC(C)=CC1COC(=O)C(C)(C)C (stereo not drawn) [Compound 67],1,1,0.25,0.25,0.25,0.25,0.25,0.25,0.25,0.25,0.06,0.125,< 0.048,0.39,< 0.048,12.5,6.25,6.25,3.12,3.12,minimal inhibitory concentration (MIC) [18]: 3.12; minimal inhibitory concentration (MIC) [19]: 3.12; minimal inhibitory concentration (MIC) [20]: 1.56; minimal inhibitory concentration (MIC) (Staphylococcus aureus): 1.56; minimal inhibitory concentration (MIC) (Streptococcus sp. 80): < 0.78; mortality at 30 mg/kg (Pasteurella multocida): 80%
CCC1OC(=O)CC(O)C(C)C(OC2OC(C)C(O)C(N(C)C)C2O)C(CC=O)CC(C)C(=O)C=CC(C)=CC1COC(=O)Cc1cc(OC)ccc1OC (stereo not drawn) [Compound 63],1,2,0.25,0.25,0.125,0.25,0.25,0.25,0.25,0.125,0.03,0.06,0.39,1.56,< 0.05,6.25,6.25,12.5,6.25,6.25,minimal inhibitory concentration (MIC) [18]: 3.12; minimal inhibitory concentration (MIC) [19]: 3.12; minimal inhibitory concentration (MIC) [20]: 6.25; minimal inhibitory concentration (MIC) (Staphylococcus aureus): 1.56; minimal inhibitory concentration (MIC) (Streptococcus sp. 80): 0.195; mortality at 30 mg/kg (Pasteurella multocida): 75%
CCC1OC(=O)CC(O)C(C)C(OC2OC(C)C(O)C(N(C)C)C2OC(C)=O)C(CC=O)CC(C)C(=O)C=CC(C)=CC1COC(=O)NCc1ccccc1 (stereo not drawn) [Compound 75],0.5,1,0.125,0.25,0.125,0.25,0.125,0.125,0.125,0.25,0.03,0.125,0.048,0.78,< 0.048,6.25,3.12,6.25,6.25,> 50,minimal inhibitory concentration (MIC) [18]: 12.5; minimal inhibitory concentration (MIC) [19]: 6.25; minimal inhibitory concentration (MIC) [20]: 3.12; minimal inhibitory concentration (MIC) (Staphylococcus aureus): 0.78; minimal inhibitory concentration (MIC) (Streptococcus sp. 80): 0.39; mortality at 30 mg/kg (Pasteurella multocida): 100%
CCC1OC(=O)CC(O)C(C)C(OC2OC(C)C(O)C(N(C)C)C2OC(C)=O)C(CC=O)CC(C)C(=O)C=CC(C)=CC1COC(=O)OC (stereo not drawn) [Compound 73],1,2,0.25,0.25,0.25,0.25,0.25,0.25,0.25,0.25,0.03,0.25,0.097,0.39,0.097,6.25,6.25,3.12,6.25,> 50,minimal inhibitory concentration (MIC) [18]: 6.25; minimal inhibitory concentration (MIC) [19]: 6.25; minimal inhibitory concentration (MIC) [20]: 3.12; minimal inhibitory concentration (MIC) (Staphylococcus aureus): 0.78; minimal inhibitory concentration (MIC) (Streptococcus sp. 80): 0.39; mortality at 30 mg/kg (Pasteurella multocida): 0%
CCC1OC(=O)CC(O)C(C)C(OC2OC(C)C(O)C(N(C)C)C2OC(C)=O)C(CC=O)CC(C)C(=O)C=CC(C)=CC1COC(=O)CCCC(=O)OC (stereo not drawn) [Compound 71],2,2,0.25,0.25,0.25,0.25,0.25,0.25,0.5,0.25,0.03,0.25,0.195,12.5,0.78,50,12.5,12.5,6.25,3.12,minimal inhibitory concentration (MIC) [18]: 3.12; minimal inhibitory concentration (MIC) [19]: 6.25; minimal inhibitory concentration (MIC) [20]: 6.25; minimal inhibitory concentration (MIC) (Staphylococcus aureus): 0.78; minimal inhibitory concentration (MIC) (Streptococcus sp. 80): 1.56; mortality at 30 mg/kg (Pasteurella multocida): 60%
CCC1OC(=O)CC(O)C(C)C(OC2OC(C)C(OC(C)=O)C(N(C)C)C2OC(C)=O)C(CC=O)CC(C)C(=O)C=CC(C)=CC1COS(=O)(=O)c1ccc(C)cc1 (stereo not drawn) [Compound 55],1,1,0.25,0.125,0.125,0.25,0.25,0.25,0.125,0.125,0.03,0.06,0.05,0.78,0.05,3.12,3.12,6.25,3.12,6.25,minimal inhibitory concentration (MIC) [18]: 6.25; minimal inhibitory concentration (MIC) [19]: 3.12; minimal inhibitory concentration (MIC) [20]: 3.12; minimal inhibitory concentration (MIC) (Staphylococcus aureus): 0.195; minimal inhibitory concentration (MIC) (Streptococcus sp. 80): 0.05; mortality at 30 mg/kg (Pasteurella multocida): 100%
